Experimental data taken from patent US20060173015A1, “Cyclohexyldiamines as selective alpha 1a/1d adrenoreceptor antagonists for the treatment of benign prostatic hypertrophy and lower urinary tract symptoms” (priority 2004, published 2006).
pKi: −log10 of the molar value.

Key:
[1] = target: T1, α1a-AR (Homo sapiens, UniProt P35348); test: α1-Adrenergic receptor radio-ligand (125I-HEAT) binding assay, α1a subtype; conditions: COS-7 cell membranes, 125I-HEAT
T1 construct: expressed in transfected cells; host or cells: COS-7
T1 sequence (P35348 1-466): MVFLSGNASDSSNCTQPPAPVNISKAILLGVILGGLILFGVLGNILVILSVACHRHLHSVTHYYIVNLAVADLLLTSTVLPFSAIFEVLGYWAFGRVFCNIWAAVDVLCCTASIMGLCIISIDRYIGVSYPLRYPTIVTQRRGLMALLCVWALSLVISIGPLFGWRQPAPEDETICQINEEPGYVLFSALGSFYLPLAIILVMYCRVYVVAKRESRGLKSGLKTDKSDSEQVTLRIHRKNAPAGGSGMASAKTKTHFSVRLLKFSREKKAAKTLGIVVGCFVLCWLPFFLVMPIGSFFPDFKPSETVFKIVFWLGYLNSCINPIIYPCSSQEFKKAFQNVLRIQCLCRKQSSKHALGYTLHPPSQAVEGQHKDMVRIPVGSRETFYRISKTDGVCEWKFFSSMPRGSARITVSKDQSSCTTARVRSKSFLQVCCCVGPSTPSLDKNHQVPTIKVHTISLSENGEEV
Description: α1-Adrenergic Receptor Binding Assay: Preparation of COS Cell Membranes
Membranes were prepared from COS-7 cells that had been transfected with one of the three α1-AR subtypes by the following method. COS cells from ten 100 mm tissue culture plates were scraped into 5 mL TE (50 mM Tris-HCl, 5 mM EDTA, pH 7.4). The cell suspension was disrupted with a Brinkman Polytron, setting 8, for 10 sec. The disrupted cells were centrifuged at 1000×g for 10 min at 4° C. Supernatants were centrifuged at 34,500×g for 20 min at 4° C. The membrane pellets were suspended in 2 mL TNE (50 mM Tris-HCl, 5 mM EDTA, 150 mM NaCl, pH7.4). An aliquot of the membrane suspension was stored at −70° C. until use. The protein concentration was determined using the BioRad DC protein assay kit following membrane solubilization with Triton X-100.
Radio-Ligand Binding Assay
Triplicate determinations of radio-ligand binding in the presence of increasing: concentrations of testing compound were made. The reagents were added to 96-well polypropylene plate wells using the Biomek 1000 robot (Beckman Instruments). Each assay well contained 140 μl TNE, 25 μL ^125I-HEAT (specific activity 2200 Ci/mmol, Dupont-NEN, 50 pM final), 10 μL testing compound dissolved in DMSO (1 pM to 10 μM in half-log increments, final), and 25 μL appropriate α1-AR membrane subtype suspension in TNE (0.5 ng/μL for the α1a and α1b subtypes and 13 ng/μL for the α1d subtype). The plate was incubated at rt for 1 hr. The contents of the wells were filtered through a GF/C membrane Unifilter plate (Packard Instruments) using the Packard Filtermate cell harvester. The filter plates were dried in a vacuum oven for 30 min at 40° C. 25 μL Microscint 20 liquid scintillation fluid (Packard Instuments) was added to each well. The radioactive content was analyzed in the TopCount microplate scintillation counter (Packard Instruments).

[2] = target: T2, α1d-AR (Homo sapiens, UniProt P25100); test: α1-Adrenergic receptor radio-ligand (125I-HEAT) binding assay, α1d subtype; conditions: COS-7 cell membranes, 125I-HEAT; read-out: Receptor Binding, Ki α1d-AR
T2 construct: expressed in transfected cells; host or cells: COS-7
T2 sequence (P25100 1-572): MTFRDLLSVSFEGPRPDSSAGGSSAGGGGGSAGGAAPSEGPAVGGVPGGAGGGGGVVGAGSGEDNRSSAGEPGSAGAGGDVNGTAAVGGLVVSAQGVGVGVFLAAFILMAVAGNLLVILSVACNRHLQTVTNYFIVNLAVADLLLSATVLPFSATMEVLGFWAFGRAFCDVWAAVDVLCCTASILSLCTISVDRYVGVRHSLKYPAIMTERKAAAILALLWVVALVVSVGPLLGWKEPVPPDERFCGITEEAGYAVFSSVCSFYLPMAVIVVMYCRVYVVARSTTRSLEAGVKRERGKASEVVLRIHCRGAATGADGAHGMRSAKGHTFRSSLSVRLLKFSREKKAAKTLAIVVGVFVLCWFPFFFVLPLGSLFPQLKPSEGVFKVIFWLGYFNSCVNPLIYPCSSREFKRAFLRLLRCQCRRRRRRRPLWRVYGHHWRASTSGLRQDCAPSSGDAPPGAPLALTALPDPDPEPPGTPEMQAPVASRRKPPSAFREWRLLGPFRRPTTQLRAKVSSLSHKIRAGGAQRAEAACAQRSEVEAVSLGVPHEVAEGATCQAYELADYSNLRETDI

[3] = target: T3, α1b-AR (Homo sapiens, UniProt P35368); test: α1-Adrenergic receptor radio-ligand (125I-HEAT) binding assay, α1b subtype; conditions: Receptor Binding, Ki α1b-AR, COS-7 cell membranes, 125I-HEAT
T3 sequence (P35368 1-520): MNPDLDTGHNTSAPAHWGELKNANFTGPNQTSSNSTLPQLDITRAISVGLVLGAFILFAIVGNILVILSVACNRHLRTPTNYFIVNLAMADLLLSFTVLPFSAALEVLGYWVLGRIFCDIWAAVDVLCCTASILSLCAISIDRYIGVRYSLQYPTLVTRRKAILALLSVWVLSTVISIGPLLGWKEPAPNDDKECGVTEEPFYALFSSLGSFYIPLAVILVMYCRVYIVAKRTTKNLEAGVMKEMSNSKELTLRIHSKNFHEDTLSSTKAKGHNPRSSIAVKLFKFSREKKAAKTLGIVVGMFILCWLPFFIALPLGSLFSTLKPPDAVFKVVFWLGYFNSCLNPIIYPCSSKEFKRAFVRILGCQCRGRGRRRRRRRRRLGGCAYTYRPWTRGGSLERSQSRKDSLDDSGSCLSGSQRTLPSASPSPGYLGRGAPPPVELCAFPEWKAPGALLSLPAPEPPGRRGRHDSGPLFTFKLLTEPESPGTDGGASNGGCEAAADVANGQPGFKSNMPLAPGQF

| Compound | pKi [1] | pKi [2] | pKi [3] |
| --- | --- | --- | --- |
| CC(C)Oc1ccccc1N1CCN([C@H]2CC[C@H](NS(=O)(=O)c3ccccc3)CC2)CC1 [Cpd 53] | 8.57 | 7.26 | 6.31 |
| CC(C)Oc1ccccc1N1CCN([C@H]2CC[C@@H](NS(=O)(=O)Cc3ccccc3)CC2)CC1 [Cpd 57, N-cis-{4-[4-(2-Isopropoxy-phenyl)-piperazin-1-yl]-cyclohexyl}-C-phenyl-methanesulfonamide] | 8.92 | 8.44 | 7.09 |
| CC(C)Oc1ccccc1N1CCN([C@H]2CC[C@@H](NS(=O)(=O)c3cccc4cccnc34)CC2)CC1 [Cpd 58, Quinoline-8-sulfonic acid N-cis-{4-[4-(2-isopropoxy-phenyl)-piperazin-1-yl]-cyclohexyl}-amide] | 8.08 | 8.37 | 6.94 |
| CC(C)Oc1ccccc1N1CCN([C@H]2CC[C@@H](NS(=O)(=O)c3cccnc3)CC2)CC1 [Cpd 59, Pyridine-3-sulfonic acid N-cis-{4-[4-(2-isopropoxy-phenyl)-piperazin-1-yl]-cyclohexyl}-amide] | 8.30 | 7.34 | 6.40 |
| COc1ccncc1S(=O)(=O)N[C@H]1CC[C@@H](N2CCN(c3ccccc3OC(C)C)CC2)CC1 [Cpd 60, 4-Methoxy-pyridine-3-sulfonic acid N-cis-{4-[4-(2-isopropoxy-phenyl)-piperazin-1-yl]-cyclohexyl}-amide] | 8.31 | 8.03 | 6.77 |
| CC(C)Oc1ccccc1N1CCN([C@H]2CC[C@@H](NS(=O)(=O)c3cnc(Cl)c(Br)c3)CC2)CC1 [Cpd 61, 5-Bromo-6-chloro-pyridine-3-sulfonic acid N-cis-{4-[4-(2-isopropoxy-phenyl)-piperazin-1-yl]-cyclohexyl}-amide] | 7.84 | 9.85 | 6.90 |
| CC(C)Oc1ccccc1N1CCN([C@H]2CC[C@H](NS(=O)(=O)Cc3ccccc3)CC2)CC1 [Cpd 62, N-trans-{4-[4-(2-Isopropoxy-phenyl)-piperazin-1-yl]-cyclohexyl}-C-phenyl-methanesulfonamide] | 8.41 | 7.92 | 6.70 |
| CC(C)Oc1ccccc1N1CCN([C@H]2CC[C@H](NS(=O)(=O)c3cnc(Cl)c(Br)c3)CC2)CC1 [Cpd 66, 5-Bromo-6-chloro-pyridine-3-sulfonic acid N-trans-{4-[4-(2-isopropoxy-phenyl)-piperazin-1-yl]-cyclohexyl}-amide] | 8.46 | 7.84 | 6.55 |
| CCN([C@H]1CC[C@@H](N2CCN(c3ccccc3OC(C)C)CC2)CC1)S(=O)(=O)c1ccc(OC)c(OC)c1 [Cpd 67, N-Ethyl-N-cis-{4-[4-(2-isopropoxy-phenyl)-piperazin-1-yl]-cyclohexyl}-3,4-dimethoxy-benzenesulfonamide] | 7.82 | 7.66 | 6.49 |
| CCN([C@H]1CC[C@H](N2CCN(c3ccccc3OC(C)C)CC2)CC1)S(=O)(=O)c1ccc(OC)c(OC)c1 [Cpd 68, N-Ethyl-N-trans-{4-[4-(2-isopropoxy-phenyl)-piperazin-1-yl]-cyclohexyl}-3,4-dimethoxy-benzenesulfonamide] | 7.64 | 8.17 | 6.96 |
| COc1ccc(S(=O)(=O)N[C@H]2CC[C@@H](N3CCN(c4ccc(F)cc4OC(C)C)CC3)CC2)cc1OC [Cpd 71, N-cis-{4-[4-(4-Fluoro-2-isopropoxy-phenyl)-piperazin-1-yl]-cyclohexyl}-3,4-dimethoxy-benzenesulfonamide] | 7.83 | 8.23 | 6.15 |

The next lines start with the values.

| pKi [1] | pKi [2] | pKi [3] | Compound |
| --- | --- | --- | --- |
| 9.00 | 7.57 | 6.63 | CC(C)Oc1ccccc1N1CCN([C@H]2CC[C@H](NS(=O)(=O)c3ccccc3[N+](=O)[O-])CC2)CC1 [Cpd 54] |
| 9.30 | 7.66 | 7.11 | CC(C)Oc1ccccc1N1CCN([C@H]2CC[C@H](NS(=O)(=O)c3cccc4cccnc34)CC2)CC1 [Cpd 63, Quinoline-8-sulfonic acid N-trans-{4-[4-(2-isopropoxy-phenyl)-piperazin-1-yl]-cyclohexyl}-amide] |
| 8.24 | 8.26 | 6.72 | CC(C)Oc1ccccc1N1CCN([C@H]2CC[C@H](NS(=O)(=O)c3cccnc3)CC2)CC1 [Cpd 64, Pyridine-3-sulfonic acid N-trans-{4-[4-(2-isopropoxy-phenyl)-piperazin-1-yl]-cyclohexyl}-amide] |
| 7.87 | 7.12 | 6.57 | COc1ccncc1S(=O)(=O)N[C@H]1CC[C@H](N2CCN(c3ccccc3OC(C)C)CC2)CC1 [Cpd 65, 4-Methoxy-pyridine-3-sulfonic acid N-trans-{4-[4-(2-isopropoxy-phenyl)-piperazin-1-yl]-cyclohexyl}-amide] |
| 7.27 | 8.08 | 7.46 | COc1ccc(S(=O)(=O)N[C@H]2CC[C@H](N3CCN(c4ccccc4OCC(F)(F)F)CC3)CC2)cc1OC [Cpd 70] |
| 8.05 | 7.91 | 6.84 | COc1ccc(S(=O)(=O)N[C@H]2CC[C@H](N3CCN(c4ccc(F)cc4OC(C)C)CC3)CC2)cc1OC [Cpd 72, N-trans-{4-[4-(4-Fluoro-2-isopropoxy-phenyl)-piperazin-1-yl]-cyclohexyl}-3,4-dimethoxy-benzenesulfonamide] |
| 6.22 | 6.87 | 7.09 | COc1ccc(Cl)cc1S(=O)(=O)N[C@H]1CC[C@@H](N2CCN(c3ccc(F)cc3OC(C)C)CC2)CC1 [Cpd 73, 5-Chloro-N-cis-{4-[4-(4-fluoro-2-isopropoxy-phenyl)-piperazin-1-yl]-cyclohexyl}-2-methoxy-benzenesulfonamide] |
| 8.25 | 8.66 | 7.00 | CC(C)Oc1cc(F)ccc1N1CCN([C@H]2CC[C@@H](NS(=O)(=O)c3cc(Cl)ccc3F)CC2)CC1 [Cpd 74, 5-Chloro-2-fluoro-N-cis-{4-[4-(4-fluoro-2-isopropoxy-phenyl)-piperazin-1-yl]-cyclohexyl}-benzenesulfonamide] |
